From patent US12637469B2, “1H-pyrazole derivative and application thereof as dual target inhibitor of Syk and VEGFR2” (Ocumension Therapeutics (Suzhou) Co., Ltd., priority 2020, dated 2026)

Legend:
Abl(h) = target: T1, Abl(h) (Homo sapiens, UniProt P00519); assay: Eurofins KinaseProfiler off-target kinase inhibition; assay type: biochemical
T1 construct: purchased Eurofins (KinaseProfiler platform)
Protocol: (§1) In order to investigate the specificity of the inhibition of the target by the compound, in this study, the activity and selectivity of test compound 1 on the off-target kinases in related pathways were tested on the Eurofins kinaseProfiler™ platform, and compound screening and analysis were conducted using IC50 value as the indicator.
(§2) Compound 1 was detected for each selected kinase using the standard Eurofins Kinase Profiler™ protocol, which followed the relevant standard operating procedures. The IC50 values of the inhibitory activity of the test compound 1 on 67 kinases including Abl(h), B-Raf(h), BTK(h) and JAK(h) were analyzed.

Aurora-B(h) = target: T2, Aurora-B(h) (Homo sapiens, UniProt Q96GD4); assay: as above; assay type: biochemical
T2 construct: purchased Eurofins (KinaseProfiler platform)
T2 sequence (Q96GD4 whole entry): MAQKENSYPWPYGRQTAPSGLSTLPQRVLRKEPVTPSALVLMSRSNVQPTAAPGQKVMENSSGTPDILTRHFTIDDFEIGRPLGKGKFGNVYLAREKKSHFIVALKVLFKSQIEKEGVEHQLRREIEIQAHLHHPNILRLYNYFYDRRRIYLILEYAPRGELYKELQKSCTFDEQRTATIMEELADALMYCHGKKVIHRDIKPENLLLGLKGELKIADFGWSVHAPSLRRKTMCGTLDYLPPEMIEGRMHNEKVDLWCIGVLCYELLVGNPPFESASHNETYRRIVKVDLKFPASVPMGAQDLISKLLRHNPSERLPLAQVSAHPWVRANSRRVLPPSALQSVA
Protocol: as §1, §2

CDK2/cyclinA(h) = target: T3, CDK2/cyclinA(h) (Homo sapiens, UniProt P24941); assay: as above; assay type: biochemical
T3 construct: purchased Eurofins (KinaseProfiler platform)
Protocol: as §1, §2

CDK6/cyclinD3(h) = target: T4, CDK6/cyclinD3(h) (Homo sapiens, UniProt Q00534); assay: as above; assay type: biochemical
T4 construct: purchased Eurofins (KinaseProfiler platform)
Protocol: as §1, §2

CHK1(h) = target: T5, CHK1(h) (Homo sapiens, UniProt O14757); assay: as above; assay type: biochemical
T5 construct: purchased Eurofins (KinaseProfiler platform)
Protocol: as §1, §2

EGFR(h) = target: T6, EGFR(h) (Homo sapiens, UniProt P00533); assay: as above; assay type: biochemical
T6 construct: purchased Eurofins (KinaseProfiler platform)
T6 sequence (P00533 25-1210): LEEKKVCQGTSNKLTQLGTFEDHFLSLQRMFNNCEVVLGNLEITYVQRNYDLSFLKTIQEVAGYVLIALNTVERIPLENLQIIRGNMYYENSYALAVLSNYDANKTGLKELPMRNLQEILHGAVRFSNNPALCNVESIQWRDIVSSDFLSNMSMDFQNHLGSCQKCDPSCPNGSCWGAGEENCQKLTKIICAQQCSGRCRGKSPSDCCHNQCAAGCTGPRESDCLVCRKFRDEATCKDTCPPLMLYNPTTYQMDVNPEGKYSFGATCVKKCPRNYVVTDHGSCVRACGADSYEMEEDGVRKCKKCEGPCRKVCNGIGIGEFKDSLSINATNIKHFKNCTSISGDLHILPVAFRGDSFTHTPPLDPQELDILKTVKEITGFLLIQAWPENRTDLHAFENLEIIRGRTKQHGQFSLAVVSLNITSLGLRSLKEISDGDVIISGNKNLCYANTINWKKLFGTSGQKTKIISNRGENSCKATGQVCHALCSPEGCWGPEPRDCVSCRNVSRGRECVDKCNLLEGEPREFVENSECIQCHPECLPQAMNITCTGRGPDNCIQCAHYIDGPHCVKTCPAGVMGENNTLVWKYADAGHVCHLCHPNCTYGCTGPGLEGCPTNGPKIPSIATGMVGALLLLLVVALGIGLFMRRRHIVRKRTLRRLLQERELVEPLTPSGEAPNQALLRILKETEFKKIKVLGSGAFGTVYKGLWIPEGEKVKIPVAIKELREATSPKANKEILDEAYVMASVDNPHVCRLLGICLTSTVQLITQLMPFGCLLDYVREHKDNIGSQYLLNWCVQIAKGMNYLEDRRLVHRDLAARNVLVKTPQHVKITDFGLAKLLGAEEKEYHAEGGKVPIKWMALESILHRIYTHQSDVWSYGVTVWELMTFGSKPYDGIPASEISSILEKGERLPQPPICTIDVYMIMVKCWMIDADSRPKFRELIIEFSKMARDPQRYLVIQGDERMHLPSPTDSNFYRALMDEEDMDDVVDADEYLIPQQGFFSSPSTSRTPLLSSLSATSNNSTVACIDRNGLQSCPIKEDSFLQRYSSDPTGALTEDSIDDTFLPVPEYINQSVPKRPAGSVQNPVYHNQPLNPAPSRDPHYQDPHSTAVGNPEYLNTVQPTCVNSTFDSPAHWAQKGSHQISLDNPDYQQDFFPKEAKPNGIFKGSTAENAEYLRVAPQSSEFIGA
Protocol: as §1, §2

ErbB2(h) = target: T7, ErbB2(h) (Homo sapiens, UniProt P04626); assay: as above; assay type: biochemical
T7 construct: purchased Eurofins (KinaseProfiler platform)
Protocol: as §1, §2

FGFR2(h) = target: T8, FGFR2(h) (Homo sapiens, UniProt P21802); assay: as above; assay type: biochemical
T8 construct: purchased Eurofins (KinaseProfiler service)
Protocol: as §1, §2

FGFR3(h) = target: T9, FGFR3(h) (Homo sapiens, UniProt P22607); assay: as above; assay type: biochemical
T9 construct: purchased Eurofins (KinaseProfiler platform)
Protocol: as §1, §2

Flt3(h) = target: T10, Flt3(h) (Homo sapiens, UniProt P36888); assay: as above; assay type: biochemical
T10 construct: purchased Eurofins (KinaseProfiler platform)
Protocol: as §1, §2

Hck(h)activated = target: T11, Hck(h)activated (Homo sapiens, UniProt P08631); assay: as above; assay type: biochemical
T11 construct: purchased Eurofins (KinaseProfiler service)
Protocol: as §1, §2

IKKα(h) = target: T12, IKKα(h) (Homo sapiens, UniProt O15111); assay: as above; assay type: biochemical
T12 construct: purchased Eurofins (KinaseProfiler platform)
Protocol: as §1, §2

Itk(h) = target: T13, Itk(h) (Homo sapiens, UniProt Q08881); assay: as above; assay type: biochemical
T13 construct: purchased Eurofins (KinaseProfiler service)
T13 sequence (Q08881 whole entry): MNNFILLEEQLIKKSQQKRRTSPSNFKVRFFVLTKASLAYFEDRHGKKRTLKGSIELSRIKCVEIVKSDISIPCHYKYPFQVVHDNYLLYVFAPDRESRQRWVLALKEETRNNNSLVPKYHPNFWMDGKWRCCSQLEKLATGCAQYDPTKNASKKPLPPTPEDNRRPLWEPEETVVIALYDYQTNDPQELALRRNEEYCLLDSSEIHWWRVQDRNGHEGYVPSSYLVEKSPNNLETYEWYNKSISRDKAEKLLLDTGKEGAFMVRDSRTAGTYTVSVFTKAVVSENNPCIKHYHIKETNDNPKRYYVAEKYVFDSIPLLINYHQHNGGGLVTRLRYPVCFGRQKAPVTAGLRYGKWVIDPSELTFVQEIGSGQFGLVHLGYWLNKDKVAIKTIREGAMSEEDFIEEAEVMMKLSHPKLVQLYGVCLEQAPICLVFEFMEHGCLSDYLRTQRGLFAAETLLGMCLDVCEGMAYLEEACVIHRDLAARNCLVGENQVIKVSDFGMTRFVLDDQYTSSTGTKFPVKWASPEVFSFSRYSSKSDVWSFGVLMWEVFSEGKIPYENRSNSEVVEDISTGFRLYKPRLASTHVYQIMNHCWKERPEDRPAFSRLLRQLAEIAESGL
Protocol: as §1, §2

JNK3(h) = target: T14, JNK3(h) (Homo sapiens, UniProt P53779); assay: as above; assay type: biochemical
T14 construct: purchased Eurofins (KinaseProfiler service)
T14 sequence (P53779 whole entry): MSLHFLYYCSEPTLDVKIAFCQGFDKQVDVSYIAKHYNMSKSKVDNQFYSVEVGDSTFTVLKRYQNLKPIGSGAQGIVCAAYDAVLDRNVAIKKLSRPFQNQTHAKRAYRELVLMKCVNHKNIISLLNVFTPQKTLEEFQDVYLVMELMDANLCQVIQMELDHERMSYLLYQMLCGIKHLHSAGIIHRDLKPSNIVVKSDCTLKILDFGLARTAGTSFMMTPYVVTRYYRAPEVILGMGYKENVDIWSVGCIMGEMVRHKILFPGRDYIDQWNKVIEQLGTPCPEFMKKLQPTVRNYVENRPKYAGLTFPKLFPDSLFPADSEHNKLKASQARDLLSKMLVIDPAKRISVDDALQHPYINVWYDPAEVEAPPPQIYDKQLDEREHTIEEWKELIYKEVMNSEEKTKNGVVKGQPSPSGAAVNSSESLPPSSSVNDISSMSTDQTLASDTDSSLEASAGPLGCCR
Protocol: as §1, §2

Lyn(h) = target: T15, Lyn(h) (Homo sapiens, UniProt P07948); assay: as above; assay type: biochemical
T15 construct: purchased Eurofins (KinaseProfiler service)
Protocol: as §1, §2

MEK1(h) = target: T16, MEK1(h) (Homo sapiens, UniProt Q02750); assay: as above; assay type: biochemical
T16 construct: purchased Eurofins (KinaseProfiler service)
Protocol: as §1, §2

MKK6(h) = target: T17, MKK6(h) (Homo sapiens, UniProt P52564); assay: as above; assay type: biochemical
T17 construct: purchased Eurofins (KinaseProfiler service)
Protocol: as §1, §2

MSK1(h) = target: T18, MSK1(h) (Homo sapiens, UniProt O75582); assay: as above; assay type: biochemical
T18 construct: purchased Eurofins (KinaseProfiler service)
Protocol: as §1, §2

PKA(h) = target: T19, PKA(h) (Homo sapiens, UniProt P17612); assay: as above; assay type: biochemical
T19 construct: purchased Eurofins (KinaseProfiler service)
Protocol: as §1, §2

ROCK-II(h) = target: T20, ROCK-II(h) (Homo sapiens, UniProt O75116); assay: as above; assay type: biochemical
T20 construct: purchased Eurofins (KinaseProfiler platform)
Protocol: as §1, §2

Ret(h) = target: T21, Ret(h) (Homo sapiens, UniProt P07949); assay: as above; assay type: biochemical
T21 construct: purchased Eurofins (KinaseProfiler platform)
Protocol: as §1, §2

Ros(h) = target: T22, Ros(h) (Homo sapiens, UniProt P08922); assay: as above; assay type: biochemical
T22 construct: purchased Eurofins (KinaseProfiler platform)
T22 sequence (P08922 28-2347): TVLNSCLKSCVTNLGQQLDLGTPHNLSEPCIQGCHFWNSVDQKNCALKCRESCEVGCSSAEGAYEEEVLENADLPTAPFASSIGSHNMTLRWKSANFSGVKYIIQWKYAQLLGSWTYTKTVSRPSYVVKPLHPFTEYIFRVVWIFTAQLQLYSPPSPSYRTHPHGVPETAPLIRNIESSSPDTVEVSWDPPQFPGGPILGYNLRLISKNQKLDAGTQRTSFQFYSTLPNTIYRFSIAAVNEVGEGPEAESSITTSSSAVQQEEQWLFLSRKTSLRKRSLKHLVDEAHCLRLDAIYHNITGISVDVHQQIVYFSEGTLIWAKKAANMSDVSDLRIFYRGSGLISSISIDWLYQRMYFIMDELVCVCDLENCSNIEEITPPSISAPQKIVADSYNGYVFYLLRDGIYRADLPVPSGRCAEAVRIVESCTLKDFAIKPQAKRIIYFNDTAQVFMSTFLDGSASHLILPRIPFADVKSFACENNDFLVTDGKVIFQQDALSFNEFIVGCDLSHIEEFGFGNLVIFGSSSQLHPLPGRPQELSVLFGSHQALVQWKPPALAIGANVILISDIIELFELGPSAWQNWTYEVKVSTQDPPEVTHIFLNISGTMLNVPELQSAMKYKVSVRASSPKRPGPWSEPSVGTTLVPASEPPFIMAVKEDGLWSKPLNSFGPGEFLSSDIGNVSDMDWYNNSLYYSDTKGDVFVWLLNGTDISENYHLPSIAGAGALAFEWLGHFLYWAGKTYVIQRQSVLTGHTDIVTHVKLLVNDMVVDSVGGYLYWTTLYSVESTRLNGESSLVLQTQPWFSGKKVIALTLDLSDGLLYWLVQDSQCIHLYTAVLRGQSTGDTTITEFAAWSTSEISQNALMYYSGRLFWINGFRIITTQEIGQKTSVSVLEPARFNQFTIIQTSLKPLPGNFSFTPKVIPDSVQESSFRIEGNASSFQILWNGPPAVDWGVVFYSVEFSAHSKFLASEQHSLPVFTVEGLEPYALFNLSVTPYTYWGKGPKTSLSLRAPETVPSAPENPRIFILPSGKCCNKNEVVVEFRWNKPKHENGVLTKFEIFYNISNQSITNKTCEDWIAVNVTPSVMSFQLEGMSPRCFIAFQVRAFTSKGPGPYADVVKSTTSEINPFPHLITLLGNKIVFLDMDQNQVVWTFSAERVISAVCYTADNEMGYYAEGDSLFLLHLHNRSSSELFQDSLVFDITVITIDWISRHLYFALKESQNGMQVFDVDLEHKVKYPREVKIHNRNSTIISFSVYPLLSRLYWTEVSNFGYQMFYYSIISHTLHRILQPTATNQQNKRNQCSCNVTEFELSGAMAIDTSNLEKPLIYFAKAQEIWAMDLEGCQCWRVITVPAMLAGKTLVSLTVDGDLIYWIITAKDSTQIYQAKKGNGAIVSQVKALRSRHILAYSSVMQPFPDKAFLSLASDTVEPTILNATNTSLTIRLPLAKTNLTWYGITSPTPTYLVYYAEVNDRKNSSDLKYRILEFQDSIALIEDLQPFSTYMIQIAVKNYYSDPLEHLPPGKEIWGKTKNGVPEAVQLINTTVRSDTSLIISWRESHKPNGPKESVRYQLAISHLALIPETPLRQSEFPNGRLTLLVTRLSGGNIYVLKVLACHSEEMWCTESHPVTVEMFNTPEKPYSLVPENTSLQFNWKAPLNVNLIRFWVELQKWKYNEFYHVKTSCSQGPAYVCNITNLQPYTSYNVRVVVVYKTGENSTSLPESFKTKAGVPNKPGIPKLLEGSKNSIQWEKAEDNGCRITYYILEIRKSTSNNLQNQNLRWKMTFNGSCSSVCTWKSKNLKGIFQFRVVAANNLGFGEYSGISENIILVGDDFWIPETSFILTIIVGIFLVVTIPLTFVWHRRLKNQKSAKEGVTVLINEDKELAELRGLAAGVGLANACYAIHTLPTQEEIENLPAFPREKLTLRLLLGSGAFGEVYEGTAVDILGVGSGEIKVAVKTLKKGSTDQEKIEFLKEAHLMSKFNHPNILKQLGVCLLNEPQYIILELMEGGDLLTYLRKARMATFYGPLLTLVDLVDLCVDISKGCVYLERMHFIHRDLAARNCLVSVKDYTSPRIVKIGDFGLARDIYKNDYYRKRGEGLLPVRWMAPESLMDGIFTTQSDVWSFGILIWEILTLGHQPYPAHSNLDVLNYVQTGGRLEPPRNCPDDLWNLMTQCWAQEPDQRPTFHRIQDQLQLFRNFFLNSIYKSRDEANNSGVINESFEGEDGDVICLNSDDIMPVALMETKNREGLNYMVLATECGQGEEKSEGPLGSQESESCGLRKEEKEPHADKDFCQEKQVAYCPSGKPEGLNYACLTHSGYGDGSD
Protocol: as §1, §2

TGFBR1(h) = target: T23, TGFBR1(h) (Homo sapiens, UniProt P36897); assay: as above; assay type: biochemical
T23 construct: purchased Eurofins (KinaseProfiler platform)
Protocol: as §1, §2

TYK2(h) = target: T24, TYK2(h) (Homo sapiens, UniProt P29597); assay: as above; assay type: biochemical
T24 construct: purchased Eurofins (KinaseProfiler platform)
Protocol: as §1, §2

TrkA(h) = target: T25, TrkA(h) (Homo sapiens, UniProt P04629); assay: as above; assay type: biochemical
T25 construct: purchased Eurofins (KinaseProfiler platform)
Protocol: as §1, §2

c-kit(h) = target: T26, c-kit(h) (Homo sapiens, UniProt P10721); assay: as above; assay type: biochemical
T26 construct: purchased Eurofins (KinaseProfiler platform)
Protocol: as §1, §2

mTOR/FKBP12(h) = target: T27, mTOR/FKBP12(h) (Homo sapiens, UniProt P42345); assay: as above; assay type: biochemical
T27 construct: purchased Eurofins (KinaseProfiler service)
Protocol: as §1, §2

[1] = Pharmacokinetic evaluation of ocular administration to mouse (cornea and plasma exposure); assay type: in vivo, C57BL/6 mice; conditions: eye drop, 0.1 mg/animal
Protocol: In order to investigate the eye-to-blood ratio of the in vivo exposure amounts of the compound after ocular administration thereof, LC-MS/MS method was used in this study to determine the exposure amounts of compound 1 in cornea and plasma after the ocular administration of the compound 1 to a mouse, where compound screening and analysis were conducted by using the drug concentration at the same time point as an indicator.
C57BL/6 mice, weighing 18-20 g, were randomly divided into 4 groups after 3-5 days of acclimatization, with each group including three mice, and the mice were administered by eye drops at 5 μL for each eye.
The test animals (C57BL/6 mice) were not fasted before administration, but drank water freely before and during the experiment.
About 0.05 mL of blood was collected from saphenous vein at 1 hour and 3 hours following the eye drop administration, anticoagulated with commercial EDTA-K2, and transferred to a centrifuge for centrifugation. After blood sampling from saphenous vein, the corneas were collected under isoflurane anesthesia. At each of the time points, the plasma and corneas of the mice in the same group were pooled for detection.
Plasma: within 30 minutes the plasma was transferred to be subject to centrifugation at 4° C., 3200 g for 10 minutes, and 20 μL of plasma was taken from each mouse. At each time point, the plasma of the mice in the same group was pooled for detection.
Cornea: the cornea was removed, rinsed twice with pre-cooled normal saline, dried with a paper towel, and put into a 1.5 mL centrifuge tube, weighed with an analytical balance by a peeling method, and finally the body weight was weighed. At each time point, the corneas of the mice in the same group were pooled for detection.
Corneal homogenization method: 1 g of cornea was added to 9 mL of pre-cooled methanol: 15 mM phosphate buffer solution=1:2, an ultrasonic cell disruptor (No. 2 amplitude rod, amplitude 50%, working for 5 s, stopping for 5 s, and ultrasonic treatment for 3 min) was used.

IC50 (Abl(h)): 152 nM
IC50 (Aurora-B(h)): 232 nM
IC50 (CDK2/cyclinA(h)): > 10000 nM
IC50 (CDK6/cyclinD3(h)): > 10000 nM
IC50 (CHK1(h)): > 10000 nM
IC50 (EGFR(h)): > 10000 nM
IC50 (ErbB2(h)): > 10000 nM
IC50 (FGFR2(h)): > 10000 nM
IC50 (FGFR3(h)): > 10000 nM
IC50 (Flt3(h)): 12 nM
IC50 (Hck(h)activated): 418 nM
IC50 (IKKα(h)): 946 nM
IC50 (Itk(h)): 1850 nM
IC50 (JNK3(h)): 279 nM
IC50 (Lyn(h)): 934 nM
IC50 (MEK1(h)): > 10000 nM
IC50 (MKK6(h)): > 10000 nM
IC50 (MSK1(h)): > 10000 nM
IC50 (PKA(h)): > 10000 nM
IC50 (ROCK-II(h)): 499 nM
IC50 (Ret(h)): 756 nM
IC50 (Ros(h)): > 10000 nM
IC50 (TGFBR1(h)): > 10000 nM
IC50 (TYK2(h)): 117 nM
IC50 (TrkA(h)): 112 nM
IC50 (c-kit(h)): 2840 nM
IC50 (mTOR/FKBP12(h)): > 10000 nM
Kp at 1 h ([1]; C57BL/6, cornea / plasma, other: eye drops (ocular administration), 1 hour, read-out: eye-to-blood ratio): 641
Kp at 3 h ([1]; C57BL/6, cornea / plasma, other: eye drops (ocular administration), 3 hours, read-out: eye-to-blood ratio): 427
concentration at 1 h ([1]; C57BL/6, plasma, other: eye drops (ocular administration), 1 hour, read-out: Drug concentration in plasma): 10.4 nM
concentration at 3 h ([1]; C57BL/6, plasma, other: eye drops (ocular administration), 3 hours, read-out: Drug concentration in plasma): 6.8 nM
Drug concentration in corneal ([1]; 1 hour): 6670 nmol/kg
Drug concentration in corneal ([1]; 3 hours): 2910 nmol/kg
SMILES: c1cn2c(n1)c(Nc1ccc(N3CCOCC3)cc1)nc1ccc(-c3cn[nH]c3)cc12 [Compound 1]
